# Measured values reported in the supplement of paper PMC6045584.
# ± gives the standard deviation of the averaged measurements.
# Compound: CS(=O)(=O)CCNCc1ccc(-c2ccc3ncnc(Nc4ccc(OCc5cccc(F)c5)c(Cl)c4)c3c2)o1 [LAPATINIB]
# Experiment: surviving fraction relative to DMSO-only wells; higher = less growth inhibition
# Settings: 0.5 nM; exposure time: 5 days
# Outline: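 Viability was determined by CellTiter-Glo luminescence, expressed as surviving fraction normalised to the median of DMSO-only wells. The cells were log-phase tumour cell lines seeded at 250–500 per well in 384-well plates and, after 24 hours, exposed continuously for five days to inhibitors at 0.5, 1, 5, 10, 50, 100, 500 and 1000 nM. Three screens per line were run, keeping only lines with replicate Pearson r >0.7 and median Z' >0.3.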
row,Test System,surviving fraction
1,SUM149.B1*.S BREAST,1.08 ± 0.049
2,93VU HEADNECK,1.04 ± 0.13
3,LM7 BONE,0.936 ± 0.046
4,143B BONE,0.986 ± 0.065
5,SUM159 BREAST,1.08 ± 0.022
6,SUM149 BREAST,0.945 ± 0.078
7,MDAMB361 BREAST,0.891 ± 0.12
8,SAOS2 BONE,1.14 ± 0.027
9,ASKA SYNOVIAL,1.17 ± 0.046
10,HCC1395 BREAST,0.928 ± 0.083
11,HCC1954 BREAST,0.905 ± 0.087
12,CME SYNOVIAL,1.13 ± 0.2
13,VCAP PROSTATE,0.835 ± 0.089
14,YAMATO SYNOVIAL,1.22 ± 0.066
15,HCC202 BREAST,1.3 ± 0.2
16,HELA CERVIX,1.08 ± 0.1
17,SG27 HEADNECK,1.09 ± 0.081
18,CAL72 BONE,1.13 ± 0.081
19,MDAMB134 BREAST,0.967 ± 0.017
20,C33A CERVIX,0.988 ± 0.07

row,Test System,surviving fraction
1,SKBR3 BREAST,1.07 ± 0.057
2,MHM BONE,0.9907 ± 0.0093
3,VP229 BREAST,1.23 ± 0.14
4,SYO1 SYNOVIAL,0.992 ± 0.026
5,ZR751 BREAST,0.879 ± 0.09
6,KPD BONE,0.984 ± 0.055
7,SIHA CERVIX,1.05 ± 0.033
8,DU4475 BREAST,0.907 ± 0.062
9,BT549 BREAST,1.1 ± 0.073
10,COLO320DM LARGE INTESTINE,1.01 ± 0.08
11,T47D BREAST,1.01 ± 0.068
12,H23 LUNG,1.02 ± 0.071
13,NCIH441 LUNG,1.06 ± 0.071
14,HCT15 LARGE INTESTINE,1.01 ± 0.082
15,SCC90 HEADNECK,1.02 ± 0.038
16,MDAMB453 BREAST,1.06 ± 0.024
17,MG63 BONE,0.98 ± 0.029
18,A549 LUNG,1.038 ± 0.0095
19,MDAMB468 BREAST,1.07 ± 0.019

# Same assay, conditions: 1 nM; exposure time: 5 days
row,Test System,surviving fraction
1,SUM149.B1*.S BREAST,1.23 ± 0.033
2,93VU HEADNECK,1.09 ± 0.11
3,LM7 BONE,1.07 ± 0.079
4,143B BONE,1.07 ± 0.057
5,SUM159 BREAST,1.13 ± 0.018
6,SUM149 BREAST,0.988 ± 0.11
7,MDAMB361 BREAST,0.823 ± 0.11
8,SAOS2 BONE,1.19 ± 0.066
9,ASKA SYNOVIAL,1.1 ± 0.012
10,HCC1395 BREAST,0.972 ± 0.072
11,HCC1954 BREAST,1.08 ± 0.058
12,CME SYNOVIAL,1.4 ± 0.13
13,VCAP PROSTATE,0.828 ± 0.047
14,YAMATO SYNOVIAL,1.31 ± 0.15
15,HCC202 BREAST,0.845 ± 0.19
16,HELA CERVIX,1.23 ± 0.065
17,SG27 HEADNECK,1.09 ± 0.056
18,CAL72 BONE,1.1 ± 0.061
19,MDAMB134 BREAST,0.963 ± 0.1
20,C33A CERVIX,1.03 ± 0.041

row,Test System,surviving fraction
1,SKBR3 BREAST,1.06 ± 0.04
2,MHM BONE,1 ± 0.015
3,VP229 BREAST,1.21 ± 0.039
4,SYO1 SYNOVIAL,1.03 ± 0.08
5,ZR751 BREAST,0.898 ± 0.17
6,KPD BONE,1.08 ± 0.03
7,SIHA CERVIX,1.14 ± 0.021
8,DU4475 BREAST,1.1 ± 0.13
9,BT549 BREAST,1.01 ± 0.081
10,COLO320DM LARGE INTESTINE,1.09 ± 0.016
11,T47D BREAST,1.07 ± 0.036
12,H23 LUNG,1.1 ± 0.075
13,NCIH441 LUNG,1.07 ± 0.12
14,HCT15 LARGE INTESTINE,1.12 ± 0.098
15,SCC90 HEADNECK,1.01 ± 0.1
16,MDAMB453 BREAST,1.04 ± 0.061
17,MG63 BONE,1.04 ± 0.027
18,A549 LUNG,1.14 ± 0.044
19,MDAMB468 BREAST,1.01 ± 0.042

# Same assay, conditions: 5 nM; exposure time: 5 days
row,Test System,surviving fraction
1,SUM149.B1*.S BREAST,1.12 ± 0.023
2,93VU HEADNECK,1.07 ± 0.018
3,LM7 BONE,1.1 ± 0.034
4,143B BONE,0.931 ± 0.14
5,SUM159 BREAST,1.1 ± 0.037
6,SUM149 BREAST,0.943 ± 0.043
7,MDAMB361 BREAST,0.902 ± 0.096
8,SAOS2 BONE,1.24 ± 0.038
9,ASKA SYNOVIAL,1.13 ± 0.045
10,HCC1395 BREAST,0.998 ± 0.082
11,HCC1954 BREAST,1.04 ± 0.023
12,CME SYNOVIAL,1.43 ± 0.1
13,VCAP PROSTATE,0.889 ± 0.21
14,YAMATO SYNOVIAL,1.23 ± 0.12
15,HCC202 BREAST,1.17 ± 0.43
16,HELA CERVIX,1.05 ± 0.043
17,SG27 HEADNECK,1.1 ± 0.27
18,CAL72 BONE,1.16 ± 0.083
19,MDAMB134 BREAST,0.975 ± 0.028
20,C33A CERVIX,1.11 ± 0.036

row,Test System,surviving fraction
1,SKBR3 BREAST,1.12 ± 0.12
2,MHM BONE,1.05 ± 0.014
3,VP229 BREAST,1.21 ± 0.15
4,SYO1 SYNOVIAL,0.976 ± 0.034
5,ZR751 BREAST,1.01 ± 0.08
6,KPD BONE,1.05 ± 0.02
7,SIHA CERVIX,1.06 ± 0.02
8,DU4475 BREAST,1.02 ± 0.079
9,BT549 BREAST,0.971 ± 0.044
10,COLO320DM LARGE INTESTINE,1.14 ± 0.026
11,T47D BREAST,1.08 ± 0.072
12,H23 LUNG,0.9837 ± 0.0059
13,NCIH441 LUNG,1.08 ± 0.059
14,HCT15 LARGE INTESTINE,1.04 ± 0.059
15,SCC90 HEADNECK,1.01 ± 0.087
16,MDAMB453 BREAST,1.09 ± 0.099
17,MG63 BONE,1.06 ± 0.035
18,A549 LUNG,1.06 ± 0.02
19,MDAMB468 BREAST,1.13 ± 0.054

# Same assay, conditions: 10 nM; exposure time: 5 days
row,Test System,surviving fraction
1,SUM149.B1*.S BREAST,1.11 ± 0.026
2,93VU HEADNECK,1.12 ± 0.069
3,LM7 BONE,1.1 ± 0.042
4,143B BONE,0.967 ± 0.11
5,SUM159 BREAST,1.07 ± 0.014
6,SUM149 BREAST,0.889 ± 0.12
7,MDAMB361 BREAST,0.874 ± 0.065
8,SAOS2 BONE,1.24 ± 0.049
9,ASKA SYNOVIAL,1.16 ± 0.053
10,HCC1395 BREAST,0.975 ± 0.16
11,HCC1954 BREAST,1.01 ± 0.12
12,CME SYNOVIAL,1.28 ± 0.12
13,VCAP PROSTATE,1.15 ± 0.049
14,YAMATO SYNOVIAL,1.24 ± 0.077
15,HCC202 BREAST,0.937 ± 0.17
16,HELA CERVIX,1.04 ± 0.038
17,SG27 HEADNECK,1.18 ± 0.17
18,CAL72 BONE,1.11 ± 0.055
19,MDAMB134 BREAST,1 ± 0.14

row,Test System,surviving fraction
1,C33A CERVIX,1.02 ± 0.045
2,SKBR3 BREAST,1.01 ± 0.054
3,MHM BONE,1.07 ± 0.037
4,SYO1 SYNOVIAL,1.04 ± 0.041
5,ZR751 BREAST,1.1 ± 0.23
6,KPD BONE,1.03 ± 0.049
7,SIHA CERVIX,1.11 ± 0.037
8,DU4475 BREAST,0.944 ± 0.017
9,BT549 BREAST,1.06 ± 0.043
10,COLO320DM LARGE INTESTINE,1.2 ± 0.082
11,T47D BREAST,1.07 ± 0.05
12,H23 LUNG,1.01 ± 0.019
13,NCIH441 LUNG,1.17 ± 0.067
14,HCT15 LARGE INTESTINE,1.06 ± 0.076
15,SCC90 HEADNECK,0.971 ± 0.04
16,MDAMB453 BREAST,1.11 ± 0.12
17,MG63 BONE,1.07 ± 0.035
18,A549 LUNG,1.07 ± 0.016
19,MDAMB468 BREAST,1.09 ± 0.08
